Experimental data as given in patent US20250304567A1, “PYRROLIDIONE DERIVATIVES AS INHIBITORS OF NF KAPPA B INDUCING KINASE” (priority 2022, published 2025).
Where two headings read alike, the source gives them in different places.

What was measured:
[1] = system: p-IKKa levels in L363 (NIK translocated multiple myeloma) cells; assay: Effect of compounds on p-IKKa levels in L363 (NIK translocated multiple myeloma) cells (AlphaLISA SureFire Ultra p-IKKa Ser176/180); assay type: cell-based, human; details: average if tested more than once, read-out: Assay 2 IC50
Outline: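 Phospho-IKKa (Ser176/180) in lysates quantified by AlphaLISA after 6 h compound exposure, 11-point threefold dilutions, 0.3% DMSO. L363 cells were pre-stimulated overnight and assayed with 250 ng/ml BAFF and 10 μM MG132; % inhibition fitted sigmoidally for IC50, duplicate curves.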

[2] = target: Recombinant Human NF-kappaB-Inducing Kinase (NIK/MAP3K14) (Homo sapiens, UniProt Q99558); assay: Inhibition of auto-phosphorylation of recombinant human NIK/MAP3K14 activity (AlphaScreen); assay type: biochemical; details: 5 μM ATP, 1 nM NIK, average if tested more than once
Outline: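 AlphaScreen detection of phospho-Ser176/180 after 1 nM GST-NIK auto-phosphorylates for 2 h at 25 °C with 5 μM ATP (50 mM Tris pH 7.5, 0.7% DMSO). IC50s come from sigmoidal curves of % inhibition against log dose, using enzyme-free, ATP-free low controls and full-activity high controls.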

[3] = Homo sapiens, L-363, p-IKKa levels in L363 cells

Sequence of Recombinant Human NF-kappaB-Inducing Kinase (NIK/MAP3K14) (Q99558 whole entry): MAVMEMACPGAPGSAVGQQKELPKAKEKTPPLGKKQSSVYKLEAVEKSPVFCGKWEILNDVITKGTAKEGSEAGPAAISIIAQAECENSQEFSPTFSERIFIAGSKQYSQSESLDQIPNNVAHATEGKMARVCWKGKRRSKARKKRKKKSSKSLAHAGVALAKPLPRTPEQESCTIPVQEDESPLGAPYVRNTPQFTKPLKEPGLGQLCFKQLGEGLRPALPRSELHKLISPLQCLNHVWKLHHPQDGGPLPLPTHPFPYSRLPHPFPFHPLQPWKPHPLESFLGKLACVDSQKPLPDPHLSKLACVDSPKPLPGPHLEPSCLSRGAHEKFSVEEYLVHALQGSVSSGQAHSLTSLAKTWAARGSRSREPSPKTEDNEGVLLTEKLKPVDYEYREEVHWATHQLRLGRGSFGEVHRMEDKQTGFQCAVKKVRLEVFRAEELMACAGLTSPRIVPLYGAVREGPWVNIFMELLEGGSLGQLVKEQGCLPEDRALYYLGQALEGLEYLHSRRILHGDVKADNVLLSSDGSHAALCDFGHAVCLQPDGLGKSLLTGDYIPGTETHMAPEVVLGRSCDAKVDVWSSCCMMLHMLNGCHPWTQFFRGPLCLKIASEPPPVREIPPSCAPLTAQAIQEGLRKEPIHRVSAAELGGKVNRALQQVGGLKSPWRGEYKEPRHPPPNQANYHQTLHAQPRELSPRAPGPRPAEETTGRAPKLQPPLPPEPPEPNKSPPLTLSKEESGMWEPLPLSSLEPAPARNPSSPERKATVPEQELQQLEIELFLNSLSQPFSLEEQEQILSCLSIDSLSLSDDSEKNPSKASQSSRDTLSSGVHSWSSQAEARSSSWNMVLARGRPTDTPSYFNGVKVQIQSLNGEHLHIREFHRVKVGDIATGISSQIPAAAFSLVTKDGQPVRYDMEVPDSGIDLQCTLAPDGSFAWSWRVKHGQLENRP

Row | SMILES | IC50 [1, 3] | IC50 [2] | IC50 ([1]; p-IKKa levels in L363 cells)
1 | COc1nn(CC(F)F)cc1Nc1nccc(-n2ccc(-c3cncc([C@]4(O)CCN(C)C4=O)c3)n2)n1 (single isomer, unassigned) [Example 150, (R)-3-(5-(1-(2-((1-(2,2-difluoroethyl)-3-methoxy-1H-pyrazol-4-yl)amino)pyrimidin-4-yl)-1H-pyrazol-3-yl)pyridin-3-yl)-3-hydroxy-1-methylpyrrolidin-2-one or (S)-3-(5-(1-(2-((1-(2,2-difluoroethyl)-3-methoxy-1H-pyrazol-4-yl)amino)pyrimidin-4-yl)-1H-pyrazol-3-yl)pyridin-3-yl)-3-hydroxy-1-methylpyrrolidin-2-one] | < 100 nM | < 100 nM | –
2 | CN1CC[C@@](O)(c2cccc(-c3nc(-c4ccnc(NCc5cnn(C)c5)n4)cs3)c2)C1=O [Example 183] | > 501 nM | < 100 nM | –
3 | Cc1nc(Nc2nccc(-c3csc(-c4cccc([C@]5(O)CCN(C)C5=O)c4)n3)n2)sc1C [Example 233] | 100 to 500 nM | < 100 nM | –
4 | CN1CC[C@@](O)(c2cccc(-c3nc(-c4ccnc(Nc5cn6ccccc6n5)n4)cs3)c2)C1=O [Example 179] | > 501 nM | > 501 nM | –
5 | C[C@@H](Nc1nccc(-c2csc(-c3cccc([C@]4(O)CCN(C)C4=O)c3)n2)n1)c1cncn1C (single isomer, unassigned) [Example 134] | > 501 nM | > 501 nM | –
6 | CN1C(=O)[C@@](O)(c2cncc(-c3csc(-c4ccnc(Nc5ccn(C)n5)n4)n3)c2)C[C@@H]1C(F)(F)F (single isomer, unassigned) [Example 62] | > 501 nM | > 501 nM | –
7 | CC(Nc1nccc(-c2csc(-c3cccc([C@]4(O)CCN(C)C4=O)c3)n2)n1)c1cnn(C)c1 (stereo partly drawn) [Example 121, (R)-3-hydroxy-1-methyl-3-(3-(4-(2-(((R,S)-1-(1-methyl-1H-pyrazol-4-yl)ethyl)amino)pyrimidin-4-yl)thiazol-2-yl)phenyl)pyrrolidin-2-one] | 100 to 500 nM | < 100 nM | –
8 | Cc1cn(CC(F)(F)F)nc1Nc1nccc(-c2csc(-c3cccc([C@]4(O)CCN(C)C4=O)c3)n2)n1 [Example 245] | > 501 nM | > 501 nM | –
9 | Cc1cnoc1Nc1nccc(-c2csc(-c3cccc([C@]4(O)CCN(C)C4=O)c3)n2)n1 [Example 274, (R)-3-Hydroxy-1-methyl-3-(3-(4-(2-((4-methylisoxazol-5-yl)amino)pyrimidin-4-yl)thiazol-2-yl)phenyl)pyrrolidin-2-one] | > 501 nM | > 501 nM | –
10 | Cc1cn(-c2ccnc(Nc3ccn(C)n3)n2)nc1-c1cc(C2(O)CCN(C)C2=O)ccn1 (racemic) [Example 32, (R, S)-3-Hydroxy-1-methyl-3-(2-(4-methyl-1-(2-((1-methyl-1H-pyrazol-3-yl)amino)pyrimidin-4-yl)-1H-pyrazol-3-yl)pyridin-4-yl)pyrrolidin-2-one] | > 501 nM | < 100 nM | –
11 | CN1CC[C@@](O)(c2cccc(-c3ccn(-c4ccnc(Nc5cn(CC(F)F)nc5OC5CC5)n4)n3)c2)C1=O [Example 102, (R)-3-(3-(1-(2-((3-cyclopropoxy-1-(2,2-difluoroethyl)-1H-pyrazol-4-yl)amino)pyrimidin-4-yl)-1H-pyrazol-3-yl)phenyl)-3-hydroxy-1-methylpyrrolidin-2-one] | < 100 nM | < 100 nM | –
12 | CN1CC[C@@](O)(c2cccc(-c3nc(-c4ccnc(Nc5ccnn5C5COC5)n4)cs3)c2)C1=O [Example 160, (R)-3-Hydroxy-1-methyl-3-(3-(4-(2-((1-(oxetan-3-yl)-1H-pyrazol-5-yl)amino)pyrimidin-4-yl)thiazol-2-yl)phenyl)pyrrolidin-2-one] | > 501 nM | < 100 nM | –
13 | CN1CC[C@@](O)(c2cccc(-c3csc(-c4ccnc(NC5COC5)n4)n3)c2)C1=O [Example 128, (R)-3-hydroxy-1-methyl-3-(3-(2-(2-(oxetan-3-ylamino)pyrimidin-4-yl)thiazol-4-yl)phenyl)pyrrolidin-2-one] | 100 to 500 nM | < 100 nM | –
14 | C[C@@H](Nc1nccc(-c2csc(-c3cccc([C@]4(O)CCN(C)C4=O)c3)n2)n1)c1ccccn1 [Example 185] | > 501 nM | < 100 nM | –
15 | CN1CC[C@@](O)(c2cccc(-c3nc(-c4ccnc(Nc5ccnnc5)n4)cs3)c2)C1=O [Example 267, (R)-3-hydroxy-1-methyl-3-(3-(4-(2-(pyridazin-4-ylamino)pyrimidin-4-yl)thiazol-2-yl)phenyl)pyrrolidin-2-one] | > 501 nM | > 501 nM | –
16 | CN1CC[C@@](O)(c2cccc(-c3nc(-c4ccnc(NC5CCCn6nccc65)n4)cs3)c2)C1=O (stereo partly drawn) [Example 123, (R)-3-hydroxy-1-methyl-3-(3-(4-(2-(((R,S)-4,5,6,7-tetrahydropyrazolo[1,5-a]pyridin-4-yl)amino)pyrimidin-4-yl)thiazol-2-yl)phenyl)pyrrolidin-2-one] | > 501 nM | < 100 nM | –

Row | SMILES | IC50 [1, 3] | IC50 [2] | IC50 ([1]; p-IKKa levels in L363 cells)
17 | CN1CC[C@@](O)(c2cccc(-c3nc(-c4ccnc(NCc5cnccn5)n4)cs3)c2)C1=O [Example 194] | > 501 nM | 100 to 500 nM | –
18 | CC(=O)N1CC(Nc2nccc(-c3csc(-c4cccc([C@]5(O)CCN(C)C5=O)c4)n3)n2)C1 [Example 172] | > 501 nM | 100 to 500 nM | –
19 | Cc1cc(Nc2nccc(-c3csc(-c4cccc([C@]5(O)CCN(C)C5=O)c4)n3)n2)ccn1 [Example 43, (R)-3-Hydroxy-1-methyl-3-(3-(4-(2-((2-methylpyridin-4-yl)amino)pyrimidin-4-yl)thiazol-2-yl)phenyl)pyrrolidin-2-one] | 100 to 500 nM | < 100 nM | –
20 | CN1CC[C@@](O)(c2cccc(-c3ccn(-c4ccnc(Nc5cnn(C)c5)n4)n3)c2)C1=O [Example 90, (R)-3-hydroxy-1-methyl-3-(3-(1-(2-((1-methyl-1H-pyrazol-4-yl)amino)pyrimidin-4-yl)-1H-pyrazol-3-yl)phenyl)pyrrolidin-2-one] | 100 to 500 nM | < 100 nM | –
21 | CN1CC[C@@](O)(c2cccc(-c3nc(-c4ccnc(NC5CC6CC(O)C5C6)n4)cs3)c2)C1=O (some centres unmarked) [Example 220] | > 501 nM | 100 to 500 nM | –
22 | CN1CC[C@@](O)(c2cccc(-c3nc(-c4ccnc(NC[C@H]5CCOC5)n4)cs3)c2)C1=O [Example 192] | > 501 nM | 100 to 500 nM | –
23 | CN1CC[C@@](O)(c2cccc(-c3nc(-c4ccnc(NC5CCOc6cccnc65)n4)cs3)c2)C1=O (some centres unmarked) [Example 227] | > 501 nM | < 100 nM | –
24 | CN1CC[C@@](O)(c2cccc(-c3nc(-c4ccnc(Nc5cn(C)nc5OC(F)F)n4)cs3)c2)C1=O [Example 99, (R)-3-(3-(4-(2-((3-(difluoromethoxy)-1-methyl-1H-pyrazol-4-yl)amino)pyrimidin-4-yl)thiazol-2-yl)phenyl)-3-hydroxy-1-methylpyrrolidin-2-one] | < 100 nM | < 100 nM | –
25 | CN1CC[C@@](O)(c2cccc(-c3nc(-c4ccnc(NCCS(C)(=O)=O)n4)cs3)c2)C1=O [Example 173] | > 501 nM | 100 to 500 nM | –
26 | CN1CC[C@@](O)(c2cncc(-c3csc(-c4ccnc(Nc5cnn(C)c5)n4)n3)c2)C1=O (single isomer, unassigned) [Example 152, (R)-3-hydroxy-1-methyl-3-(5-(2-(2-((1-methyl-1H-pyrazol-4-yl)amino)pyrimidin-4-yl)thiazol-4-yl)pyridin-3-yl)pyrrolidin-2-one or (S)-3-hydroxy-1-methyl-3-(5-(2-(2-((1-methyl-1H-pyrazol-4-yl)amino)pyrimidin-4-yl)thiazol-4-yl)pyridin-3-yl)pyrrolidin-2-one] | 100 to 500 nM | < 100 nM | –
27 | CN(C)C(=O)Cn1ccc(Nc2nccc(-c3csc(-c4cccc([C@]5(O)CCN(C)C5=O)c4)n3)n2)n1 [Example 262, (R)-2-(3-((4-(2-(3-(3-Hydroxy-1-methyl-2-oxopyrrolidin-3-yl)phenyl)thiazol-4-yl)pyrimidin-2-yl)amino)-1H-pyrazol-1-y)-N,N-dimethylacetamide] | > 501 nM | < 100 nM | –
28 | CN1CC(F)(F)C(O)(c2cccc(-c3nc(-c4ccnc(Nc5ccn(C)n5)n4)cs3)c2)C1=O (single isomer, unassigned) [Example 36, 4,4-difluoro-3-hydroxy-1-methyl-3-(3-(4-(2-((1-methyl-1H-pyrazol-3-yl)amino)pyrimidin-4-yl)thiazol-2-yl)phenyl)pyrrolidin-2-one] | – | < 100 nM | 100 to 500 nM
29 | CN1CC[C@@](O)(c2cccc(-c3nc(-c4ccnc(NC[C@@H]5CCCO5)n4)cs3)c2)C1=O [Example 122, (R)-3-hydroxy-1-methyl-3-(3-(4-(2-((((S)-tetrahydrofuran-2-yl)methyl)amino)pyrimidin-4-yl)thiazol-2-yl)phenyl)pyrrolidin-2-one] | > 501 nM | < 100 nM | –
30 | C[C@@H](Nc1nccc(-c2csc(-c3cccc([C@]4(O)CCN(C)C4=O)c3)n2)n1)c1cn[nH]c1 (single isomer, unassigned) [Example 139] | < 100 nM | < 100 nM | –
31 | CN1CC[C@@](O)(c2cccc(-c3nc(-c4ccnc(Nc5cnn(C6CCOCC6)c5)n4)cs3)c2)C1=O [Example 273, (R)-3-Hydroxy-1-methyl-3-(3-(4-(2-((1-(tetrahydro-2H-pyran-4-yl)-1H-pyrazol-4-yl)amino)pyrimidin-4-yl)thiazol-2-yl)phenyl)pyrrolidin-2-one] | < 100 nM | < 100 nM | –
